Consider two compounds from patent US20140349852A1, “METABOLIC CONTROL OF SEED GERMINATION” (Oregon State University, priority 2010, published 2014).

The subject of series [1] is AGE:NCED6 transgenic Camelina seeds. The series can be described thus: Germination test of Camelina AGE:NCED6 seeds. Format: in vivo, Camelina sativa. On the set-up: recovery of germination of MOF-induced AGE:NCED6 Camelina seeds: dose or concentration left out as unconfirmed. The procedure: (§1) For the induction experiment in imbibed seeds, seeds were placed in 9 cm plastic petri dishes on two layers of filter paper (No. 2, Whatman Inc.) moistened with 4 mL water or (122.6 μM or 2×10,000) MOF or 1 mM ABA and incubated at 4° C. for overnight and at 22° C. for 72 h (germination tests and gene expression analysis).
To determine whether there was an effect of the AGE: NCED6 expression vector on the ability of transgenic seeds to undergo germination, wild-type and homozygous seeds from transgenic plant lines, 16-12, 17-17, and 13-12, were imbibed for three days in the presence or absence of MOF. […] Control seeds of non-transgenic plants were shown the same in the presence or absence of MOF. Germination of Camelina seeds is observed initially as ruptured testa followed by emergence of the […] when the radicle emerges.

Series [2] concerns control seeds of non-transgenic plants. The series can be described thus: Germination test of wild-type Camelina seeds. Format: in vivo, Camelina sativa. The conditions noted are these: presence or absence of MOF. The procedure:
as §1

The test system of series [3] is Arabidopsis NCED6 expression in AGE:NCED6 Camelina seeds. Briefly: Real time PCR analysis of Arabidopsis NCED6 in Camelina seeds. Format: in vivo, Camelina sativa. Conditions: imbibed three days in the presence or absence of MOF. On the technique in general: Real-time PCR tracks product formation cycle by cycle.
The test system of series [4] is ABA levels in AGE:NCED6 Camelina seeds. The series can be described thus: ABA quantification in Camelina seeds by mass spectrometry. Format: in vivo, Camelina sativa. Conditions: after application of MOF. The procedure: ABA was quantified by a previously published method (44), but was modified to ABA. Briefly, samples were ground in liquid nitrogen and internal standards ([…] of 2.5 mM) were added. Samples were extracted with 1.5 mL acetonitrile/methanol (1:1 v:v). After lyophilization, samples were resolubilized in […] of 50% MeOH. For LC separation, two monolithic C18 columns (Onyx, 4.6 mm×100 mm, Phenomenex) with a guard cartridge were used flowing at 1 mL min^−1. […] For quantitation, a series of standards were prepared containing different concentrations of ABA mixed with D-labeled ABA (250 μmol/sample). […] The peak areas of endogenous ABA were normalized with the corresponding internal standard and then calculated according to the standard curve.
To examine whether ABA levels in the AGE: NCED6 seeds were affected by gene induction, ABA in wild-type and the AGE: NCED6 seeds was quantified by mass spectrometry, as described previously. […]

In series [5] the test system is AGE:CYP707A2 transgenic Camelina seeds. Briefly: Germination test of Camelina AGE:CYP707A2 seeds. The format is in vivo, Camelina sativa. Conditions: imbibed three days in the presence of MOF or MOF+ABA (1 mM ABA). The procedure:
as §1
To determine whether there was an effect of AGE: CYP707A2 transgenic seeds on germination during imbibitions, wild-type and homozygous seeds from transgenic plant lines, 14-3, 3-6, and 2-1, were imbibed for three days in the presence of MOF or in the presence of MOF+ABA.

The next series has as its system AGE:NCED6 seeds. Briefly: Germination test of imbibed AGE:NCED6 seeds. The format is in vivo, Arabidopsis thaliana. Conditions: 10 μM fluridone co-applied with Intrepid®2F. The procedure:
Briefly, for the induction of AGE:NCED6 plants at ˜10 rosette stages, diluted (×10,000), Intrepid®2F (Dow AgroSciences) solution which contained 62 μM MOF as an active ingredient was applied directly to the soil in pots containing Arabidopsis seedlings by drenching. Seedling were harvested two days after induction and frozen at −80° C. before RNA extraction. For the induction experiments in imbibed seeds, seeds were placed in 9 cm plastic petri dishes on two layers of filter paper (No. 2, Whatman Inc) moistened with 3.5 mL water or Intrepid®2F (×10,000) and incubated at 4° C. for 3 days and at 22° C. for 29 h (gene expression analysis) or 5 days (germination tests).

On to `COc1cccc(C(=O)NN(C(=O)c2cc(C)cc(C)c2)C(C)(C)C)c1C` [MOF, methoxyfenozide], for which the “inhibition of germination (endosperm rupture and radicle protrusion), line 13-12” value in series [1] (AGE:NCED6 Camelina line 13-12, MOF, three days) amounted to 95%. In series [1] (AGE:NCED6 Camelina line 16-12, MOF, three days), the “inhibition of germination (endosperm rupture and radicle protrusion), line 16-12” value stood at 89%. Besides, the “inhibition of germination (endosperm rupture and radicle protrusion), line 17-17” value in series [1] (AGE:NCED6 Camelina line 17-17, MOF, three days) was 90%. The “germination of AGE:NCED6 Camelina seeds” value in series [1] (imbibed three days in the presence of MOF (122.6 μM)) is listed as “inhibited dramatically”. Besides, the “germination of control seeds of non-transgenic Camelina plants” value in series [2] is “the same”. In addition, the “Arabidopsis NCED6 expression in Camelina seeds by real time PCR” value in series [3] is “did not detect”. The “ABA in AGE:NCED6 Camelina seeds” value in series [4] is listed as “remarkable increase in ABA”. Besides, in series [5], the “germination of AGE:CYP707A2 Camelina seeds, line 2-1” value is listed as 95%; the “germination of AGE:CYP707A2 Camelina seeds, line 3-6” value is recorded as 98%; the “germination of AGE:CYP707A2 Camelina seeds, line 14-3” value worked out at 99%.
fluridone: in the series with AGE:NCED6 seeds, the “recovery of germination of ligand-suppressed AGE:NCED6 seeds” value is recorded as “fully rescued”. Moreover, in series [1] (co-application of MOF and fluridone, data not shown), the “recovery of germination of MOF-induced AGE:NCED6 Camelina seeds” value is reported as “fully rescued”.
